#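 Test compounds were applied to cells in 96-well plates for 48 hours at 5 doses. Here, GI50 denotes the concentration required for 50% inhibition of growth.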 Activity calls are given as the source filed them. Rule as the data show it: active = GI50 up to about 1.1 µM and inactive = higher.
# Experiments:
# Assay in all cases: inhibition of tumour cell growth, NCI panel, 48 h
# KM12 = system: KM12
# K562 = system: K562
# SF-295 = system: SF-295
# OVCAR-8 = system: OVCAR-8
# PC-3 = system: PC-3
# HOP-62 = system: HOP-62
# SK-MEL-28 = system: SK-MEL-28
# OVCAR-5 = system: OVCAR-5
# SN12C = system: SN12C
# ACHN = system: ACHN
# SF-539 = system: SF-539
# SNB-19 = system: SNB-19
# COLO 205 = system: COLO 205
# HL-60 = system: HL-60
# LOX IMVI = system: LOX IMVI
# UACC-257 = system: UACC-257
# SW-620 = system: SW-620
# HT-29 = system: HT-29
# TK-10 = system: TK-10
# HCT-15 = system: HCT-15
# Hs-578T = system: Hs-578T
# SK-OV-3 = system: SK-OV-3
# NCI/ADR-RES = system: NCI/ADR-RES
# CCRF-CEM = system: CCRF-CEM
# HCC 2998 = system: HCC 2998
# 786-0 = system: 786-0
# SK-MEL-2 = system: SK-MEL-2
# MCF7 = system: MCF7
# NCI-H522 = system: NCI-H522
# MDA-MB-435 = system: MDA-MB-435
# MDA-N = system: MDA-N
# SR = system: SR
# SNB-75 = system: SNB-75
# DU-145 = system: DU-145
# Malme-3M = system: Malme-3M
# RPMI-8226 = system: RPMI-8226
# UO-31 = system: UO-31
# NCI-H460 = system: NCI-H460
# T47D = system: T47D
# SK-MEL-5 = system: SK-MEL-5
# A549 = system: A549
# NCI-H226 = system: NCI-H226
# U-251 = system: U-251
# SF-268 = system: SF-268
# IGROV-1 = system: IGROV-1
# MOLT-4 = system: MOLT-4
# EKVX = system: EKVX
# RXF 393 = system: RXF 393
# NCI-H23 = system: NCI-H23
# A498 = system: A498
# HCT-116 = system: HCT-116
# MDA-MB-231 = system: MDA-MB-231
# BT-549 = system: BT-549
# UACC-62 = system: UACC-62
# OVCAR-4 = system: OVCAR-4
# M14 = system: M14
# CAKI-1 = system: CAKI-1
# OVCAR-3 = system: OVCAR-3
# HOP-92 = system: HOP-92
smiles,measurement,setting,value
COc1cc(OC)c(OC)cc1/C=C1\C=Cc2ccccc21,GI50,KM12,10.3 µM (inactive)
same,GI50,K562,5.5 µM (inactive)
same,GI50,SF-295,18.5 µM (inactive)
same,GI50,OVCAR-8,31.7 µM (inactive)
same,GI50,PC-3,5.52 µM (inactive)
same,GI50,HOP-62,15.9 µM (inactive)
same,GI50,SK-MEL-28,15.7 µM (inactive)
same,GI50,OVCAR-5,12.5 µM (inactive)
same,GI50,SN12C,18.8 µM (inactive)
same,GI50,ACHN,27.1 µM (inactive)
same,GI50,SF-539,15.2 µM (inactive)
same,GI50,SNB-19,> 10 µM (inactive)
same,GI50,COLO 205,7.96 µM (inactive)
same,GI50,HL-60,5.82 µM (inactive)
same,GI50,LOX IMVI,13 µM (inactive)
same,GI50,UACC-257,16.3 µM (inactive)
same,GI50,SW-620,11.1 µM (inactive)
same,GI50,HT-29,11.7 µM (inactive)
same,GI50,TK-10,17.3 µM (inactive)
same,GI50,HCT-15,12.4 µM
same,GI50,Hs-578T,22.9 µM (inactive)
same,GI50,SK-OV-3,19.7 µM (inactive)
same,GI50,NCI/ADR-RES,17.4 µM (inactive)
same,GI50,CCRF-CEM,16.3 µM (inactive)
same,GI50,HCC 2998,13.5 µM (inactive)
same,GI50,786-0,28.1 µM (inactive)
same,GI50,SK-MEL-2,> 10 µM (inactive)
same,GI50,MCF7,12.1 µM (inactive)
same,GI50,NCI-H522,12.1 µM (inactive)
same,GI50,MDA-MB-435,5.32 µM (inactive)
same,GI50,MDA-N,9.18 µM (inactive)
same,GI50,SR,5.04 µM (inactive)
same,GI50,SNB-75,2.04 µM (inactive)
same,GI50,DU-145,28.8 µM (inactive)
same,GI50,Malme-3M,23.1 µM (inactive)
same,GI50,RPMI-8226,10.8 µM (inactive)
same,GI50,UO-31,16.3 µM (inactive)
same,GI50,NCI-H460,10.3 µM (inactive)
same,GI50,T47D,7.89 µM (inactive)
same,GI50,SK-MEL-5,11.1 µM (inactive)
same,GI50,A549,26.5 µM (inactive)
same,GI50,NCI-H226,26.9 µM (inactive)
same,GI50,U-251,9.12 µM (inactive)
same,GI50,SF-268,17.1 µM (inactive)
same,GI50,IGROV-1,26.9 µM (inactive)
same,GI50,MOLT-4,6.31 µM (inactive)
same,GI50,EKVX,19.2 µM (inactive)
same,GI50,RXF 393,11.4 µM (inactive)
same,GI50,NCI-H23,18.8 µM (inactive)
same,GI50,A498,> 10 µM (inactive)
same,GI50,HCT-116,5.65 µM (inactive)
same,GI50,MDA-MB-231,12.6 µM (inactive)
OCC(O)COCn1cc(Cn2ncc3c(SCc4ccccc4)ncnc32)nn1 (centres undefined),GI50,KM12,> 100 µM (inactive)
same,GI50,K562,> 100 µM (inactive)
same,GI50,SF-295,> 100 µM (inactive)
same,GI50,OVCAR-8,> 100 µM (inactive)
same,GI50,PC-3,> 100 µM (inactive)
same,GI50,BT-549,> 100 µM (inactive)
same,GI50,HOP-62,> 100 µM (inactive)
same,GI50,SK-MEL-28,> 100 µM (inactive)
same,GI50,OVCAR-5,> 100 µM (inactive)
same,GI50,SN12C,> 100 µM (inactive)
same,GI50,ACHN,> 100 µM (inactive)
same,GI50,SF-539,> 100 µM (inactive)
same,GI50,SNB-19,> 100 µM (inactive)
same,GI50,COLO 205,> 100 µM (inactive)
same,GI50,HL-60,> 100 µM (inactive)
same,GI50,LOX IMVI,> 100 µM (inactive)
same,GI50,UACC-257,> 100 µM (inactive)
same,GI50,SW-620,> 100 µM (inactive)
same,GI50,HT-29,> 100 µM (inactive)
same,GI50,TK-10,> 100 µM (inactive)
same,GI50,HCT-15,> 100 µM
same,GI50,UACC-62,> 100 µM (inactive)
same,GI50,SK-OV-3,> 100 µM (inactive)
same,GI50,NCI/ADR-RES,> 100 µM (inactive)
same,GI50,CCRF-CEM,> 100 µM (inactive)
same,GI50,HCC 2998,> 100 µM (inactive)
same,GI50,OVCAR-4,> 100 µM (inactive)
same,GI50,786-0,> 100 µM (inactive)
same,GI50,SK-MEL-2,> 100 µM (inactive)
same,GI50,M14,> 100 µM (inactive)
same,GI50,MCF7,> 100 µM (inactive)
same,GI50,NCI-H522,27.2 µM (inactive)
same,GI50,MDA-MB-435,> 100 µM (inactive)
same,GI50,DU-145,> 100 µM (inactive)
same,GI50,RPMI-8226,> 100 µM (inactive)
same,GI50,UO-31,> 100 µM (inactive)
same,GI50,CAKI-1,> 100 µM (inactive)
same,GI50,T47D,> 100 µM (inactive)
same,GI50,OVCAR-3,> 100 µM (inactive)
same,GI50,SK-MEL-5,> 100 µM (inactive)
same,GI50,A549,> 100 µM (inactive)
same,GI50,NCI-H226,> 100 µM (inactive)
same,GI50,U-251,> 100 µM (inactive)
same,GI50,SF-268,51.4 µM (inactive)
same,GI50,IGROV-1,> 100 µM (inactive)
same,GI50,MOLT-4,> 100 µM (inactive)
same,GI50,EKVX,> 100 µM (inactive)
same,GI50,HOP-92,> 100 µM (inactive)
same,GI50,NCI-H23,> 100 µM (inactive)
same,GI50,A498,> 100 µM (inactive)
same,GI50,HCT-116,> 100 µM (inactive)
same,GI50,MDA-MB-231,> 100 µM (inactive)

# Reference: ChEMBL document CHEMBL1201862, “PubChem BioAssay data set” (2004)
